Experimental findings from patent publication US8877889B2, “Tumor cell-killing peptides” (Industry-Academic Cooperation Foundation, Chosun University, priority 2009, dated 2014) are described below.

Entries after “also recorded” stand apart in the source; their conditions may differ. No end group written: not given here.

The subject of data set [1] is CT-26 cells. The data set can be described thus: Syngeneic animal tumor model. Type of data set: in vivo. The settings on record: Balb/c mice with CT26 tumors; for tumor size (tumor volume) versus PBS: i.v. tail vein every two days, TU2:MTD 385 μg/mouse, TU3:MTD 230 μg/mouse; for cell death of tumor cells, histochemical examination of tumors: i.v., hematoxylin and eosin. On the procedure: (A) CT26 cells were injected subcutaneously into the Balb/c mice. Tumor cells were grown for 7 days, and TU2:MTD peptide (385 μg/mouse) or PBS was intravenously injected through the tail vein (n=10 animals/group) every two days from day 7 to day 19. Tumor volume was calculated as the longest diameter×width2×0.5.
(B) TU3:MTD peptide (230 μg/mouse) or PBS were intravenously injected to the Balb/c mice bearing tumor through the tail vein (n=5 animals/group) every two days from day 8 to day 20. Tumor volume was measured as described above.
(C) Tumors were obtained from the mice treated with PBS, TU2:MTD or TU3:MTD upon sacrificing the mice, and were stained with hematoxylin and eosin. Images (400× magnification) at tumor regions were obtained (left), and the boxed region were enlarged (right).
(B) CT26 cells were injected subcutaneously into the Balb/c mice. Tumor cells were grown for 7 days, and TU2:MTD peptide (385 μg/mouse) or PBS was intravenously injected through the tail vein (n=10 animals/group) every two days from day 7 to day 19. Tumor weights were measured after mice were sacrificed.
(C) TU3:MTD peptide (230 μg/mouse) or PBS were intravenously injected to the Balb/c mice bearing tumor through the tail vein (n=5 animals/group) every two days from day 8 to day 20. Tumor weights were measured as described above.
(§1) We followed the university's institutional guidelines and regulations for animal experiments. Tumors were established in Balb/c mice by subcutaneous injection of CT-26 cells (1.5×10^5 cells) into the mouse as described (14). Tumor volume was calculated as length×width^2×0.5. Tumor cells were grown for 7 to 8 days, and TU2:MTD peptide (385 μg/mouse), TU3:MTD peptide (230 μg/mouse), or PBS was intravenously injected through the tail vein every two days until the mice were sacrificed.

For data set [2], the system named is CT26 mouse colon carcinoma cells. The data set can be described thus: Tumor cell killing activity, bright field images. Type of data set: cell-based. To be noted: 10 μM peptide (FIG. 9A). On the procedure:
(A) CT26 cells were treated with 10 μM MTD, TU1:MTD, TU2:MTD, or TU3:MTD peptides, and bright field images for indicated peptides were obtained at indicated time points. Representative images of at least 3 individual experiments were presented.

Data set [3] can be described thus: Toxicity in peptide-injected mice (histology of skin, liver, kidney; body weight). It counts as in vivo, Balb/c mice. To be noted: for apparent toxic effects in mice: i.v. injected mice; for damage in liver and kidney tissues, microscopic analysis: mice injected seven times every two days; for body weight loss: peptide-injected mice; for cell death in dermis and epidermis regions: peptide-injected tumor-bearing mice, hematoxylin and eosin.
Text: (D) Images (400× magnification) of liver and kidney from normal mice or mice treated with, PBS, TU2:MTD or TU3:MTD peptides seven times every two days were obtained after stained with hematoxylin and eosin.
(D) Images (100× magnification) of dermis and epidermis region of normal skin or adjacent to tumor treated with PBS, TU2:MTD or TU3:MTD peptides were obtained after stained with hematoxylin and eosin.
as §1

For data set [4], the system named is HeLa cells. The data set can be described thus: Cell death assayed by cell counting kit-8, with or without caspase inhibitor pre-treatment. To be noted: 5 μM peptide for 5 hours (FIG. 2C). Type of data set: cell-based. On the procedure: (C) HeLa cells were pre-treated with zVAD-fmk (25 μM) or IDN-6556 (25 μM) 1 hour before MTD-peptide treatment. After treatment of 5 μM of R8, ΔR8-MTD, and R8:MTD peptides for 5 hours, cell death was assayed by cell counting kit-8 (Dojindo Molecular Technologies, Rockville, USA).

In data set [5] the test system is HeLa cells. The data set can be described thus: Peptide-induced cell death, counting dead and survived cells under the light microscope. Type of data set: cell-based. To be noted: peptides 10 μM, 20 μM, 30 μM, 10 minutes after treatment (FIG. 1B, 3A). On the procedure: (B) HeLa cells were treated with DMSO or the indicated peptides in increasing doses (10 μM, 20 μM, and 30 μM). % of cell death was determined at 10 minutes after treatment by counting the dead cells and survived cells under the light microscope.
(E) HeLa cells were transfected with substitution mutants of MTD peptide.
HeLa cells were treated with DMSO or with the indicated peptides at increasing doses (10 μM, 20 μM, or 30 μM). % cell death was determined 10 minutes after treatment by counting the dead cells and survived cells (300 cells per sample) under the light microscope.
(D) HeLa cells were treated with indicated amounts of MTD peptide for 1 hour, 2 hours, or 5 hours. % cell death was calculated by counting the dead cells and survived cells (200 to 500 cells per sample) under the light microscope. Data represent the means±SD of three independent experiments.

Data set [6] concerns HeLa cells. The data set can be described thus: Caspase activation, western blot of cell lysates. It counts as cell-based. The settings on record: 5 μM peptide. The method, then: (E) After treatment with the MTD peptide, MTDmt4, or MTDmt5 (5 μM) in HeLa cells, cell lysates were prepared at indicated times. Equal amounts of proteins were subjected to the SDS-PAGE and blotted onto PVDF membrane. After blocked with 5% nonfat milk in TBST (10 mM Tris-HCl, pH 7.5, 100 mM NaCl and 0.1% Tween-20), the membrane was probed with anti-caspase-3 (SantaCruz Biotechnology, Inc., Santa Cruz, Calif., USA), anti-caspase-8 (Cell signaling technology, Beverly, Mass., USA), anti-caspase-9 (SantaCruz Biotechnology, Inc., Santa Cruz, Calif.), anti-XIAP (Upstate Biotechnology, Dundee, United Kingdom), or anti-Bid (home-made) antibodies. Anti-actin antibody (Chemicon International, Inc., Temecula, Calif., USA) was used as equal loading control.

Data set [7] deals with NCI-H460 cells. The data set can be described thus: Peptide-induced cell death in NCI-H460 cells. Type of data set: cell-based. The settings on record: 5 μM, 2 or 5 hours (FIG. 3C). The method, then: (C) NCI-H460 cells were treated with indicated peptides for 2 hours or 5 hours. % cell death was determined as described above.
For data set [8], the system named is HeLa cells. The data set can be described thus: Measurement of intracellular calcium with Fluo-4-AM. It counts as cell-based. To be noted: 3 μM peptide. The method, then: (A-C) HeLa cells were loaded with 3 μM Fluo-4-AM for 30 minutes and then treated with 3 μM of indicated peptides (A: MTD, B: MTDmt3, C: MTDmt5). Fluorescence images and bright-field images were obtained with the laser scanning confocal microscope at 5-second intervals for 5 minutes. Relative fluorescence intensities (F/F0) at two region-of-interests (ROI 1 and 2) were measured at 5-second intervals for 5 minutes.
(E-G) HeLa cells were pretreated in calcium free KRB media alone (E), in KRB media with 10 μM 2-APB and 20 μM Ryanodine (F), or in KRB media with freshly made 30 μM CsA (G) for 2 hours. HeLa cells were then loaded with 3 μM Fluo-4-AM for 30 minutes and treated with 3 μM of MTD peptide. Images were obtained with the laser scanning confocal microscope at 5-second intervals for 5 minutes. Relative fluorescence intensities (F/F0) at two region-of-interests (ROI 1 and 2) were measured at 5-second intervals for 5 minutes.
For Ca^2+ measurements in the cytosol, HeLa cells were cultured in an Lab-Tek™ Chamber glass slide and loaded with Fluo-4-AM (Fluo-4-acetoxymethyl ester) at a final concentration of 3 μM for 30 minutes, followed by washing with PBS (Phosphate buffered saline) at pH 7.4 and the addition of fresh Ca^2+-free Krebs-ringer modified buffer (KRB: 125 mM NaCl, 5 mM KCl, 1 mM Na3PO4, 1 mM MgSO4, 5.5 mM glucose, and 20 mM HEPES, pH 7.4, at 37° C.) containing the indicated peptides. Time-lapse images were obtained at 488 nm excitation with the Argon laser scanning confocal microscope (Leica TCS SP5 Microsystems, Mannheim, Germany) at 10-second intervals for 5 minutes to visualize Fluo-4-AM.
(Calcium flux is commonly read through the fluorescence of an indicator in the cells.)

Data set [9] has as its system Isolated mouse liver mitochondria. The data set can be described thus: Isolated mitochondria treated with peptide, transmission electron microscopy. The settings on record: 10 μM peptide; 1 hour at 30° C. On the procedure:
(D) Isolated mouse liver mitochondria were treated with buffer (NT), MTD peptide (10 μM), or MTDmt5 peptide (10 μM), and then incubated for 1 hour at 30° C. Mitochondria were harvested by centrifugation (10,000×rpm) and then processed for transmission electron microscopy. Images (upper panel) were obtained with 7,000× magnification, and the relative mitochondrial sizes (lower panel) were calculated by measuring the diameters of about 40 individual mitochondria.
Jurkat cells or isolated mitochondria treated with MTD peptides were harvested by centrifugation and fixed with 2.5% glutaraldehyde for 2 hours followed by washing with 0.2 M sodium cacodylate buffer (pH 7.2) three times for 10-20 minutes. Fixation step was repeated overnight and washed with 0.2 M sodium cacodylate buffer three times. Samples were dehydrated with following sequential solutions 60% ethanol, 70% ethanol, 80% ethanol, 90% ethanol, 95% ethanol, and 100% ethanol twice for 20 minutes at 4° C., and then infiltrated by propylene oxide three times for 20 minutes. Samples were embedded with the mixture of propylene oxide and epon for 6 hours. Electron microscopic images were obtained using the Hitachi H-7600 electron microscope (80 kV, Hitachi, Tokyo, Japan). Mitochondria were isolated from mouse liver as previously described (1).

For data set [10], the system named is HeLa cells. The data set can be described thus: Cytochrome c release by immunofluorescence. The settings on record: HeLa cells transfected; 2 days in the presence of zVAD-fmk. Type of data set: cell-based. The method, then:
(B) Plasmids (control vector or Noxa WT fused to GFP) were transfected into HeLa cells. After 2 days in the presence of zVAD-fmk, cytochrome c was stained with anti-cytochrome c antibody. Arrows indicate the diffused cytochrome c staining (upper panel). The release of cytochrome c was analyzed by immunofluorescence in HeLa cells after treatment with MTD peptides (5 μM) (lower panel).

In data set [11] the test system is HeLa cells. The data set can be described thus: Cell death after transfection of Noxa constructs, counting EGFP-positive dead cells. It counts as cell-based. The method, then: (D) HeLa cells were transfected with deletion mutants of Noxa. At 11 hrs, 24 hrs, and 36 hrs after transfection, cell death was determined by counting EGFP-positive dead cells with morphological changes using the fluorescent microscope.
(B) HeLa cells were transfected with WT or with the indicated Noxa mutants. 20 hours after transfection cell death was determined by counting the EGFP-positive dead and survived cells under the fluorescent microscope.
(A) HeLa cells were transfected with either WT Noxa, 4Lmt (L42A, L43A, L45A, L49A), or 5Lmt (L29A, L42A, L43A, L45A, L49A) constructs. At the indicated times after transfection, cell death was determined by counting the EGFP-positive dead cells with morphological changes under the fluorescent microscope.
HeLa cells were transfected with EGFP-Noxa WT and 41-54 in combination with Bcl-2 expression plasmid or in the presence of zVAD-fmk (25 μM). 18 hours after transfection, cell death was determined by counting EGFP-positive dead cells with morphological changes using the fluorescent microscope. Data represent an average±SD of three experiments each with 200 total cells counted.
The percentage of cell death was determined by counting EGFP-positive dead cells with morphology using the fluorescent microscope. Minimally, 300 cells in three separate fields were counted for each measurement.

On to “CGNKRTRGCGGKLLNLISKLF (TU3-MTD fusion peptide derived from Homo sapiens) [TU3:MTD]”, for which, in [1], the “tumor size (tumor volume) versus PBS” value was “significantly smaller tumors” and the “cell death of tumor cells, histochemical examination of tumors” value is “massive cell death of tumor cells”. Moreover, the “tumor cell killing activity” value in data set [2] was “comparable killing activities to MTD peptide”. Besides, in data set [3], the “apparent toxic effects in mice” value is reported as “do not show apparent toxic effects”; the “damage in liver and kidney tissues, microscopic analysis” value was “no damages in liver and kidney tissues”; the body weight loss result is “no body weight loss”; the “cell death in dermis and epidermis regions” value is reported as “no or little cell death”.
Regarding “CNGRCVSGCAGRCGGKLLNLISKLF (TU2-MTD fusion peptide derived from Homo sapiens) [TU2:MTD]”, in data set [1], the “tumor size (tumor volume) versus PBS” value is listed as “significantly smaller tumors” and the “cell death of tumor cells, histochemical examination of tumors” value is given as “massive cell death of tumor cells”. In addition, the “tumor cell killing activity” value in data set [2] is recorded as “comparable killing activities to MTD peptide”. In data set [3], the “apparent toxic effects in mice” value was “do not show apparent toxic effects”; the “damage in liver and kidney tissues, microscopic analysis” value was “no damages in liver and kidney tissues”; the body weight loss result is “no body weight loss”; the “cell death in dermis and epidermis regions” value is recorded as “no or little cell death”.
On to KLLNLISKLF [ΔR8:MTD], for which, in data set [4], the cell death result is reported as “could not cause cell death; also recorded: no cell death-inducing activity”.
Take “RRRRRRRRGRQKLLNLISKAA (PTD-MTDmt5 fusion peptide derived from Homo sapiens)”: the “cell death-inducing activity (% of cell death)” value in [5] is “no killing activity; also recorded: completely lost their cell death-inducing activities; also recorded: no cell death”. Further, the caspase activation entry in data set [6] is given as “not activated”. Also, the “susceptibility of cells to peptide” value in data set [7] is given as “not”. The “cytosolic calcium level change” value in [8] is recorded as “did not induce changes in the cytosolic calcium level”. For the same substance, the “morphological changes or mitochondrial size changes of isolated mitochondria” value in data set [9] is “did not show any morphological changes or mitochondrial size changes”.
In the case of “WT Noxa: wild type Noxa (1-54) expressed from pEGFP-Noxa by transfection (MPGKKARKNAQPSPARAPAELEVECATQLRRFGDKLNFRQKLLNLISKLFCSGT; cysteine pairing not given here; also: EGFP fusion (pEGFP-Noxa); UniProt Q13794 1-54, looked up)”, the “cytochrome c release from mitochondria” value in data set [10] is “able to release the cytochrome c from mitochondria”. Also, in data set [11] (HeLa cells transfected (FIG. 8A)), the cell death entry is recorded as “more than 60%”. For the same substance, the “cell death after over-expression” value in data set [11] (HeLa cells, within 11 hrs after transfection (FIG. 1D)) is “induced cell death within 11 hrs”. Also, in data set [11] (HeLa cells, zVAD-fmk 25 μM, 18 hours after transfection (FIG. 10)), the “inhibition of transfection-induced cell death by zVAD-fmk” value was “significantly inhibited by zVAD-fmk”.
